Patent US20220177538A1, “CO-AGONISTS AT GLP-1 AND GIP RECEPTORS SUITABLE FOR ORAL DELIVERY” (Novo Nordisk A/S, priority 2020, published 2022)
Where two headings read alike, the source gives them in different places. Starred links: 1 amine or outer side, 2 acyl side, 3 side chain; linkers in the order of their positions; H or OH if unused. Non-standard residues stand in square brackets, D forms with d. Residues, ends and D or L forms follow the SMILES beside them. Groups on a side chain read outwards from the residue. *: point of attachment. C18 diacid = O=C(O)CCCCCCCCCCCCCCCCC(=O)*; γGlu = O=C(O)[C@H](CCC(=O)[*:2])N[*:1]; εLys = N[C@@H](CCCCN[*:1])C(=O)[*:2]; Aib = CC(C)(N)C(=O)O

How the values were obtained:
human GLP-1 receptor = human GLP-1 receptor (Homo sapiens, UniProt P43220); experiment: In vitro functional potency, CRE luciferase reporter, whole BHK cells (hGLP-1R); assay type: cell-based; design: expressed in transfected cells; host or cells: BHK (parent line BHKTS13), clone BHK CRE luc2P hGLP-1R; conditions: BHK CRE luc2P hGLP-1R cells
Protocol: (§1) The in vitro functional potency is the measure of target receptor activation in a whole cell assay.
(§2) In vitro functional potency was determined by measuring the response of the target receptor in a reporter gene assay in individual cell lines. […] When the respective receptor is activated, it results in the production of cAMP, which in turn results in expression of the luciferase protein. When assay incubation is completed, luciferase substrate (luciferin) is added resulting in the enzymatic conversion of luciferin to oxyluciferin and producing bioluminescence. The luminescence is measured as the readout for the assay.
(§3) The cells lines used in these assays were BHK cells with BHKTS13 as a parent cell line. The cell lines were derived from a clone containing the CRE luciferase element and were established by further transfection with the respective human receptor to obtain the relevant cell line: BHK CRE luc2P hGLP-1R or BHK CRE luc2P hGIPR. The cells were cultured at 37° C. with 5% CO2 in Cell Culture Medium. They were aliquoted and stored in liquid nitrogen. The cells were kept in continuous culture and were seeded out the day before each assay.
(§4) GLP-1R Cell Culture Medium consisted of DMEM medium with 10% FBS, 500 µg/mL G418, and 300 µg/mL hygromycin. GIPR Cell Culture Medium consisted of DMEM medium with 10% FBS, 400 µg/mL G418, and 300 µg/mL hygromycin. Assay Buffer consisted of DMEM w/o phenol red, 10 mM Hepes, 1× Glutamax. 1% ovalbumin, and 0.1% Pluronic F-68 with the addition of HSA at twice the final assay concentration.
(§5) 1) Cells were plated at 5000 cells/well and incubated overnight in the assay plate. 2) Cells were washed once in DPBS. 3) Stocks of the test compounds and reference compounds in concentrations ranging from […] were diluted 1:150 in Assay Buffer. Compounds were then diluted 1:10 in column 1 of a 96 deep well dilution plate and then carried across the row creating a 3.5 fold, 12 point dilution curve. 4) Assay Buffer (50 μl aliquot) with or without HSA was added to each well in the assay plate. 5) A 50 μl aliquot of compound or blank was transferred from the dilution plate to the assay plate containing the Assay Buffer with or without HSA. 6) The assay plate was incubated for 3 h in a 5% CO2 incubator at 37° C. 7) The cells were washed once with DPBS. 8) A 100 μl aliquot of DPBS was added to each well of the assay plate. 9) A 100 μl aliquot of steadylite plus reagent (light sensitive) was added to each well of the assay plate. 10) Each assay plate was covered with aluminum foil to protect it from light and shaken at 250 RPM for 30 min at room temperature. 11) Each assay plate was read in a microtiter plate reader.
(§6) The data from the microtiter plate reader was first regressed in an Excel in order to calculate the x-axis, log scale concentrations based on the individual test compound's stock concentration and the dilutions of the assay. […] The software performs a non-linear regression (log(agonist) vs response). A minimum of two replicates was measured for each sample. The reported values are averages of the replicates.

human GIP receptor = molecular target: T1, human GIP receptor (Homo sapiens, UniProt P48546); experiment: In vitro functional potency, CRE luciferase reporter, whole BHK cells (hGIPR); assay type: cell-based; conditions: BHK CRE luc2P hGIPR cells
T1 construct: expressed in transfected cells; host or cells: BHK (parent line BHKTS13), clone BHK CRE luc2P hGIPR
T1 sequence (P48546 22-466): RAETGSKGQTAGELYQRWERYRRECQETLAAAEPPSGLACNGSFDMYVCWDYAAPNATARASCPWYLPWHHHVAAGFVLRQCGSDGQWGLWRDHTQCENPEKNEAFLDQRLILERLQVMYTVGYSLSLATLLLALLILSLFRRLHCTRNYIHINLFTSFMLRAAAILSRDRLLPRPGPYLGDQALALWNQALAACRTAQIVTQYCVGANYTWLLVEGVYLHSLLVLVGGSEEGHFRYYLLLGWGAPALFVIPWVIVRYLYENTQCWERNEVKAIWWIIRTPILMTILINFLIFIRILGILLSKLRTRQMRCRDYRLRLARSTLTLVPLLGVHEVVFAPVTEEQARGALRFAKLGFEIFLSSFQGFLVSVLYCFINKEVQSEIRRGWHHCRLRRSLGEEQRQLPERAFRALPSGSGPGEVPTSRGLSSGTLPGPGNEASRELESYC
Protocol: as §1, §2, §3, §4, §5, §6

[1] = 0% HSA, read-out: hGLP-1R, CRE Luc 0% HSA EC50
[2] = hGLP-1R, CRE Luc 1% HSA EC50, 1% HSA
[3] = 0% HSA, read-out: hGIPR, CRE Luc 0% HSA EC50
[4] = hGIPR, CRE Luc 1% HSA EC50, 1% HSA

human GLP-1 receptor, sequence (P43220 24-463): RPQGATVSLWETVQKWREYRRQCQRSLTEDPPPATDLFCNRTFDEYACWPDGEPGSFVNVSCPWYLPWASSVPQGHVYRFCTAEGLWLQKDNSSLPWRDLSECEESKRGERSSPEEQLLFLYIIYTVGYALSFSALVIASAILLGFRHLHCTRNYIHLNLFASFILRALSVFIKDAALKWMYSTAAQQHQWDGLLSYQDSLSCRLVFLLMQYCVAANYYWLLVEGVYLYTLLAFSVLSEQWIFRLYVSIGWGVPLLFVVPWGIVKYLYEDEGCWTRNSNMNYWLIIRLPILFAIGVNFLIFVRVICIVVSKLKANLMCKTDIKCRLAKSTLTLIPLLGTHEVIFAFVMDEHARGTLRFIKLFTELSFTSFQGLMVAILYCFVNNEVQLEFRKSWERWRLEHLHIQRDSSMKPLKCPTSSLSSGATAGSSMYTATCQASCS

CC[C@H](C)[C@H](NC(=O)[C@H](Cc1ccccc1)NC(=O)[C@H](CCC(=O)O)NC(=O)[C@H](CCCNC(=N)N)NC(=O)[C@H](C)NC(=O)[C@H](C)NC(=O)[C@H](CCC(N)=O)NC(=O)[C@H](CCCCNC(=O)[C@@H](N)CCCCNC(=O)[C@@H](N)CCCCNC(=O)CC[C@H](NC(=O)CCCCCCCCCCCCCCCCC(=O)O)C(=O)O)NC(=O)[C@H](CCC(=O)O)NC(=O)[C@H](CC(C)C)NC(=O)[C@H](CC(C)C)NC(=O)[C@@H](NC(=O)[C@H](CO)NC(=O)[C@H](Cc1ccc(O)cc1)NC(=O)[C@H](CC(=O)O)NC(=O)[C@H](CO)NC(=O)[C@@H](NC(=O)[C@H](Cc1ccccc1)NC(=O)[C@@H](NC(=O)CNC(=O)[C@H](CCC(=O)O)NC(=O)C(C)(C)NC(=O)[C@@H](N)Cc1ccc(O)cc1)[C@@H](C)O)[C@@H](C)O)[C@@H](C)CC)C(=O)N[C@@H](CC(N)=O)C(=O)N[C@@H](Cc1c[nH]c2ccccc12)C(=O)N[C@@H](CC(C)C)C(=O)N[C@@H](CC(C)C)C(=O)N[C@@H](C)C(=O)NCC(=O)NCC(=O)N1CCC[C@H]1C(=O)O [Compound 19] (H-Y[Aib]EGTFTSDYSILLEK([εLys-εLys-γGlu-C18 diacid])QAAREFINWLLAGGP-OH)
EC50 (human GLP-1 receptor; [1]): 8.6 pM | EC50 (human GLP-1 receptor; [2]): 365 pM | EC50 (human GIP receptor; [3]): 6.5 pM | EC50 (human GIP receptor; [4]): 275 pM

CC[C@H](C)[C@H](NC(=O)[C@H](Cc1ccccc1)NC(=O)[C@H](CCC(=O)O)NC(=O)[C@H](CCCNC(=N)N)NC(=O)[C@H](C)NC(=O)[C@H](C)NC(=O)[C@H](CCC(N)=O)NC(=O)[C@H](CCCCNC(=O)[C@@H](N)CCCCNC(=O)[C@@H](N)CCCCNC(=O)CC[C@H](NC(=O)CCCCCCCCCCCCCCCCC(=O)O)C(=O)O)NC(=O)[C@H](CCC(=O)O)NC(=O)[C@H](CC(C)C)NC(=O)[C@H](CC(C)C)NC(=O)[C@@H](NC(=O)[C@H](CO)NC(=O)[C@H](Cc1ccc(O)cc1)NC(=O)[C@H](CC(=O)O)NC(=O)[C@H](CO)NC(=O)[C@@H](NC(=O)[C@H](Cc1ccccc1)NC(=O)[C@@H](NC(=O)CNC(=O)[C@H](CCC(=O)O)NC(=O)C(C)(C)NC(=O)[C@@H](N)Cc1ccc(O)cc1)[C@@H](C)O)[C@@H](C)O)[C@@H](C)CC)C(=O)N[C@@H](CC(N)=O)C(=O)N[C@@H](Cc1c[nH]c2ccccc12)C(=O)N[C@@H](CC(C)C)C(=O)N[C@@H](CC(C)C)C(=O)N[C@@H](C)C(=O)NCC(=O)NCC(=O)N1CCC[C@H]1C(=O)N[C@@H](CO)C(=O)N[C@@H](CO)C(=O)NCC(=O)N[C@@H](C)C(=O)O [Compound 21] (H-Y[Aib]EGTFTSDYSILLEK([εLys-εLys-γGlu-C18 diacid])QAAREFINWLLAGGPSSGA-OH)
EC50 (human GLP-1 receptor; hGLP-1R, CRE Luc 0% HSA EC50, 0% HSA): 5.7 pM | EC50 (human GLP-1 receptor; [2]): 118 pM | EC50 (human GIP receptor; hGIPR, CRE Luc 0% HSA EC50, 0% HSA): 5.4 pM | EC50 (human GIP receptor; [4]): 131 pM

CC[C@H](C)[C@H](NC(=O)[C@H](CO)NC(=O)[C@H](Cc1ccc(O)cc1)NC(=O)[C@H](CC(=O)O)NC(=O)[C@H](CO)NC(=O)[C@@H](NC(=O)[C@H](Cc1ccccc1)NC(=O)[C@@H](NC(=O)CNC(=O)[C@H](CCC(=O)O)NC(=O)C(C)(C)NC(=O)[C@@H](N)Cc1ccc(O)cc1)[C@@H](C)O)[C@@H](C)O)C(=O)N[C@@H](CC(C)C)C(=O)N[C@@H](CC(C)C)C(=O)N[C@@H](CCC(=O)O)C(=O)N[C@@H](CCCCNC(=O)[C@@H](N)CCCCNC(=O)[C@@H](N)CCCCNC(=O)CC[C@H](NC(=O)CCCCCCCCCCCCCCCCC(=O)O)C(=O)O)C(=O)N[C@@H](CCC(N)=O)C(=O)N[C@@H](C)C(=O)N[C@@H](C)C(=O)N[C@@H](CCCNC(=N)N)C(=O)N[C@@H](CCC(=O)O)C(=O)N[C@@H](Cc1ccccc1)C(=O)N[C@H](C(=O)N[C@@H](CC(N)=O)C(=O)N[C@@H](Cc1c[nH]c2ccccc12)C(=O)N[C@@H](CC(C)C)C(=O)N[C@@H](CC(C)C)C(=O)N[C@@H](C)C(=O)NCC(=O)NCC(=O)N1CCC[C@H]1C(=O)N[C@@H](CO)C(=O)N[C@@H](CO)C(=O)NCC(=O)N[C@@H](C)C(=O)N1CCC[C@H]1C(=O)N1CCC[C@H]1C(=O)N1CCC[C@H]1C(=O)N[C@@H](CO)C(=O)O)C(C)C [Compound 22] (H-Y[Aib]EGTFTSDYSILLEK([εLys-εLys-γGlu-C18 diacid])QAAREFVNWLLAGGPSSGAPPPS-OH)
EC50 (human GLP-1 receptor; [1]): 2.8 pM | EC50 (human GLP-1 receptor; [2]): 170 pM | EC50 (human GIP receptor; [3]): 6.2 pM | EC50 (human GIP receptor; [4]): 169 pM

CC[C@H](C)[C@H](NC(=O)[C@H](Cc1ccccc1)NC(=O)[C@H](CCC(=O)O)NC(=O)[C@H](CCCNC(=N)N)NC(=O)[C@H](C)NC(=O)[C@H](C)NC(=O)[C@H](CCC(N)=O)NC(=O)[C@H](CCCCNC(=O)[C@@H](N)CCCCNC(=O)[C@@H](N)CCCCNC(=O)CC[C@H](NC(=O)CCCCCCCCCCCCCCCCC(=O)O)C(=O)O)NC(=O)[C@H](CCC(=O)O)NC(=O)[C@H](CC(C)C)NC(=O)[C@H](CC(C)C)NC(=O)[C@@H](NC(=O)[C@H](CO)NC(=O)[C@H](Cc1ccc(O)cc1)NC(=O)[C@H](CC(=O)O)NC(=O)[C@H](CO)NC(=O)[C@@H](NC(=O)[C@H](Cc1ccccc1)NC(=O)[C@@H](NC(=O)CNC(=O)[C@H](CCC(=O)O)NC(=O)C(C)(C)NC(=O)[C@@H](N)Cc1ccc(O)cc1)[C@@H](C)O)[C@@H](C)O)[C@@H](C)CC)C(=O)N[C@@H](CCC(N)=O)C(=O)N[C@@H](Cc1c[nH]c2ccccc12)C(=O)N[C@@H](CC(C)C)C(=O)N[C@@H](CC(C)C)C(=O)N[C@@H](C)C(=O)NCC(=O)NCC(=O)N1CCC[C@H]1C(=O)N[C@@H](CO)C(=O)N[C@@H](CO)C(=O)NCC(=O)N[C@@H](C)C(=O)N1CCC[C@H]1C(=O)N1CCC[C@H]1C(=O)N1CCC[C@H]1C(=O)N[C@@H](CO)C(=O)O [Compound 23] (H-Y[Aib]EGTFTSDYSILLEK([εLys-εLys-γGlu-C18 diacid])QAAREFIQWLLAGGPSSGAPPPS-OH)
EC50 (human GLP-1 receptor; [1]): 4.1 pM | EC50 (human GLP-1 receptor; [2]): 118 pM | EC50 (human GIP receptor; [3]): 6.7 pM | EC50 (human GIP receptor; [4]): 134 pM
